According to patent US10894784B2, “Heteroarylbenzimidazole compounds” (BAYER PHARMA AKTIENGESELLSCHAFT, priority 2015, dated 2021):
Read-outs that look alike come from different tables or passages of the source.

Molecular target: TBK1 (Homo sapiens (Human), UniProt Q9UHD2)
Assay: TBK1 low ATP kinase assay (in vitro assay 1)
Type: biochemical
[1] = in vitro assay 1, read-out: TBK1 low ATP kinase assay IC50

Sequence of TBK1 (Q9UHD2 whole entry): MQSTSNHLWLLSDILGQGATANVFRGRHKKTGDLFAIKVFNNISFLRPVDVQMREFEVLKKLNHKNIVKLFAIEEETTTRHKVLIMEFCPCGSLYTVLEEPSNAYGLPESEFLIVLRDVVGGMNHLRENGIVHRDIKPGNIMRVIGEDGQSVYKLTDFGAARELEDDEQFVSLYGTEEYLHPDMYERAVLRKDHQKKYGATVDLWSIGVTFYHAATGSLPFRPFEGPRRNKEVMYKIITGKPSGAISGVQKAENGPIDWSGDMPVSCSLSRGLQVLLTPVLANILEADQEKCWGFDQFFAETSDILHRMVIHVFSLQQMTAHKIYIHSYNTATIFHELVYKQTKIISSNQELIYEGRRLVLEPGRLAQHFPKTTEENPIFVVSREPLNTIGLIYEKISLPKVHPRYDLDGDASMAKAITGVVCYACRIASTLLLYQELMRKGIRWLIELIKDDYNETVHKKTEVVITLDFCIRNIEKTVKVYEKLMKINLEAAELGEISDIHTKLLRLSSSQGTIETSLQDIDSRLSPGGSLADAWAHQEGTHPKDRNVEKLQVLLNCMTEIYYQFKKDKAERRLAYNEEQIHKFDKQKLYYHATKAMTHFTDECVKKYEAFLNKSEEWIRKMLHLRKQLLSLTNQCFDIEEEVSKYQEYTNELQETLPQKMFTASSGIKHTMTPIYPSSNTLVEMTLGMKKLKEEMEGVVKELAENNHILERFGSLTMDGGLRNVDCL

| SMILES | IC50 [1] | IC50 (TBK1 low ATP kinase assay IC50, in vitro assay 1) |
| --- | --- | --- |
| CC(O)c1cc(-c2ccc3nc(Nc4cc(CN5CCN(C(=O)OC(C)(C)C)CC5)ccn4)[nH]c3c2)ncn1 (racemic) [Example 97.01, (rac)-tert-butyl 4-({2-[(6-{6-[1-hydroxyethyl]pyrimidin-4-yl}-1H-benzimidazol-2-yl)amino]pyridin-4-yl}methyl)piperazine-1-carboxylate] | 21 nM | – |
| COc1cnccc1-c1ccc2nc(Nc3cc(CN4CCN(C(=O)C5(C(F)(F)F)CC5)CC4)ccn3)[nH]c2c1 [Example 04.07, {4-[(2-{[6-(3-methoxypyridin-4-yl)-1H-benzimidazol-2-yl]amino}pyridin-4-yl)methyl]piperazin-1-yl}[1-(trifluoromethyl)cyclopropyl]methanone] | 10 nM | – |
| COc1cncnc1-c1ccc2nc(Nc3cc(CN4CCN(S(=O)(=O)C5CC5)CC4)ccn3)[nH]c2c1 [Example 35.01.12, N-(4-{[4-(cyclopropylsulfonyl)piperazin-1-yl]methyl}pyridin-2-yl)-6-(5-methoxypyrimidin-4-yl)-1H-benzimidazol-2-amine] | 32.4 nM | – |
| O=C(CC(F)(F)F)N1CCN(Cc2ccnc(Nc3nc4ccc(-c5cc(C6CC6)ncn5)cc4[nH]3)c2)CC1 [Example 76.01, 1-{4-[(2-{[6-(6-cyclopropylpyrimidin-4-yl)-1H-benzimidazol-2-yl]amino}pyridin-4-yl)methyl]piperazin-1-yl}-3,3,3-trifluoropropan-1-one] | 3.2 nM | – |
| Cn1ncnc1-c1ccc2nc(Nc3cc(CN4CCN(C(=O)CC(F)(F)F)CC4)ccn3)[nH]c2c1 [Example 41.02, 3,3,3-trifluoro-1-{4-[(2-{[6-(1-methyl-1H-1,2,4-triazol-5-yl)-1H-benzimidazol-2-yl]amino}pyridin-4-yl)methyl]piperazin-1-yl}propan-1-one] | 681 nM | – |
| COc1ncccc1-c1ccc2nc(Nc3cc(CN4CCN(C(=O)CC5CC5)CC4)ccn3)[nH]c2c1 [Example 15.02, 2-cyclopropyl-1-{4-[(2-{[6-(2-methoxypyridin-3-yl)-1H-benzimidazol-2-yl]amino}pyridin-4-yl)methyl]piperazin-1-yl}ethanone] | 401 nM | – |
| O=C(C1CC1)N1CCN(Cc2ccnc(Nc3nc4ccc(-c5ncc[nH]5)cc4[nH]3)c2)CC1 [Example 43.01, cyclopropyl{4-[(2-{[6-(1H-imidazol-2-yl)-1H-benzimidazol-2-yl]amino}pyridin-4-yl)methyl]piperazin-1-yl}methanone] | 262 nM | – |
| Cc1nccc(-c2ccc3nc(Nc4cc(C(C)N5CCN(C(=O)C6CCC6)CC5)ccn4)[nH]c3c2)n1 (single isomer, unassigned) [Example 24.05.02.A, cyclobutyl{4-[(1R or 1S)-1-(2-{[6-(2-methylpyrimidin-4-yl)-1H-benzimidazol-2-yl]amino}pyridin-4-yl)ethyl]piperazin-1-yl}methanone] | 11 nM | – |
| Cc1noc(-c2ccc3nc(Nc4cc(CN5CCN(C(=O)CC(F)(F)F)CC5)ccn4)[nH]c3c2C)n1 [Example 54.01, 3,3,3-trifluoro-1-{4-[(2-{[7-methyl-6-(3-methyl-1,2,4-oxadiazol-5-yl)-1H-benzimidazol-2-yl]amino}pyridin-4-yl)methyl]piperazin-1-yl}propan-1-one] | 243 nM | – |
| O=C(CC(F)(F)F)N1CCN(Cc2ccnc(Nc3nc4ccc(-c5cc(N6CCCC6)ncn5)cc4[nH]3)c2)CC1 [Example 93.01, 3,3,3-trifluoro-1-(4-{[2-({6-[6-(pyrrolidin-1-yl)pyrimidin-4-yl]-1H-benzimidazol-2-yl}amino)pyridin-4-yl]methyl}piperazin-1-yl)propan-1-one] | 2.3 nM | – |
| COc1cnccc1-c1ccc2nc(Nc3cc(CN4CCN(C(=O)CC(F)(F)F)CC4)ccn3)[nH]c2c1 [Example 04.02, 3,3,3-trifluoro-1-{4-[(2-{[6-(3-methoxypyridin-4-yl)-1H-benzimidazol-2-yl]amino}pyridin-4-yl)methyl]piperazin-1-yl}propan-1-one] | 16.4 nM | – |
| CC(c1ccnc(Nc2nc3ccc(-c4cnn(CC5CC5)c4)cc3[nH]2)c1)N1CCN(C(=O)C2CC2)CC1 (single isomer, unassigned) [Example 39.02.03, cyclopropyl(4-{(1R or 1S)-1-[2-({6-[1-(cyclopropylmethyl)-1H-pyrazol-4-yl]-1H-benzimidazol-2-yl}amino)pyridin-4-yl]ethyl}piperazin-1-yl)methanone] | 1.66 nM | – |
| COc1cc(-c2ccc3nc(Nc4cc(C(C)N5CCN(C(=O)CC(F)(F)F)CC5)ccn4)[nH]c3c2)ncn1 (single isomer, unassigned) [Example 34.03.01.B, 3,3,3-trifluoro-1-{4-[(1S or 1R)-1-(2-{[6-(6-methoxypyrimidin-4-yl)-1H-benzimidazol-2-yl]amino}pyridin-4-yl)ethyl]piperazin-1-yl}propan-1-one] | 50.1 nM | – |

Results, then the compound that gave them:

| IC50 [1] | IC50 (TBK1 low ATP kinase assay IC50, in vitro assay 1) | SMILES |
| --- | --- | --- |
| 5.8 nM | – | O=C(CC(F)(F)F)N1CCN(Cc2ccnc(Nc3nc4ccc(-c5ccnc(F)c5)cc4[nH]3)c2)CC1 [Example 137.02, 3,3,3-trifluoro-1-{4-[(2-{[6-(2-fluoropyridin-4-yl)-1H-benzimidazol-2-yl]amino}pyridin-4-yl)methyl]piperazin-1-yl}propan-1-one] |
| 0.819 nM | – | CC(c1ccnc(Nc2nc3ccc(-c4cc(N5CCCC5)ncn4)cc3[nH]2)c1)N1CCN(C(=O)C2(C(F)(F)F)CC2)CC1 (single isomer, unassigned) [Example 117.04, (4-{(1R or 1S)-1-[2-({6-[6-(pyrrolidin-1-yl)pyrimidin-4-yl]-1H-benzimidazol-2-yl}amino)pyridin-4-yl]ethyl}piperazin-1-yl)[1-(trifluoromethyl)cyclopropyl]methanone] |
| 16.6 nM | – | CC(c1ccnc(Nc2nc3ccc(-c4cnn(CC5CC(F)(F)C5)c4)cc3[nH]2)c1)N1CCN(C(=O)C2CC2)CC1 (single isomer, unassigned) [Example 169.03, cyclopropyl{4-[(1R or 1S)-1-{2-[(6-{1-[(3,3-difluorocyclobutyl)methyl]-1H-pyrazol-4-yl}-1H-benzimidazol-2-yl)amino]pyridin-4-yl}ethyl]piperazin-1-yl}methanone] |
| 190 nM | – | Cc1noc(-c2ccc3nc(Nc4cc(CN5CCN(C(=O)C(C)(C)O)CC5)ccn4)[nH]c3c2)n1 [Example 101.16, 2-hydroxy-2-methyl-1-{4-[(2-{[6-(3-methyl-1,2,4-oxadiazol-5-yl)-1H-benzimidazol-2-yl]amino}pyridin-4-yl)methyl]piperazin-1-yl}propan-1-one] |
| 2 nM | – | CC(c1ccnc(Nc2nc3ccc(-c4cc(N5CCCC5)ncn4)cc3[nH]2)c1)N1CCN(C(=O)OC(C)(C)C)CC1 (single isomer, unassigned) [Example 117.01, tert-butyl 4-{(1R or 1S)-1-[2-({6-[6-(pyrrolidin-1-yl)pyrimidin-4-yl]-1H-benzimidazol-2-yl}amino)pyridin-4-yl]ethyl}piperazine-1-carboxylate] |
| 21 nM | – | O=C(CC(F)(F)F)N1CCN(Cc2ccnc(Nc3nc4ccc(-c5cc(OCC6(C(F)(F)F)CC6)ncn5)cc4[nH]3)c2)CC1 [Example 158.02, 3,3,3-trifluoro-1-{4-[(2-{[6-(6-{[1-(trifluoromethyl)cyclopropyl]methoxy}pyrimidin-4-yl)-1H-benzimidazol-2-yl]amino}pyridin-4-yl)methyl]piperazin-1-yl}propan-1-one] |
| – | 1.5 nM | CC(c1ccnc(Nc2nc3ccc(-c4cc(N(C)C)ncn4)cc3[nH]2)c1)N1CCN(C(=O)CC(F)(F)F)CC1 (single isomer, unassigned) [Example 100.01, 1-(4-{(1R or 1S)-1-[2-({6-[6-(dimethylamino)pyrimidin-4-yl]-1H-benzimidazol-2-yl}amino)pyridin-4-yl]ethyl}piperazin-1-yl)-3,3,3-trifluoropropan-1-one] |
| 5.8 nM | – | CC(C)(C)OC(=O)N1CCN(Cc2ccnc(Nc3nc4ccc(-c5ccnc(N)c5)cc4[nH]3)c2)CC1 [Example 138.01, tert-butyl 4-[(2-{[6-(2-aminopyridin-4-yl)-1H-benzimidazol-2-yl]amino}pyridin-4-yl)methyl]piperazine-1-carboxylate] |
| 20 nM | – | O=C(C1CC1)N1CCN(Cc2ccnc(Nc3nc4ccc(-c5ccnc(F)c5)cc4[nH]3)c2)CC1 [Example 137.03, cyclopropyl{4-[(2-{[6-(2-fluoropyridin-4-yl)-1H-benzimidazol-2-yl]amino}pyridin-4-yl)methyl]piperazin-1-yl}methanone] |
| 100 nM | – | O=C(CC(F)(F)F)N1CCN(Cc2ccnc(Nc3nc4ccc(-c5ccn[nH]5)cc4[nH]3)c2)CC1 [Example 124.02, 3,3,3-trifluoro-1-{4-[(2-{[6-(1H-pyrazol-5-yl)-1H-benzimidazol-2-yl]amino}pyridin-4-yl)methyl]piperazin-1-yl}propan-1-one] |
| 1.4 nM | – | COc1c(-c2ccc3nc(Nc4cc(C(C)N5CCN(C(=O)CC(F)(F)F)CC5)ccn4)[nH]c3c2)ncnc1N1CCC1 (single isomer, unassigned) [Example 111.03, 1-(4-{(1R or 1S)-1-[2-({6-[6-(azetidin-1-yl)-5-methoxypyrimidin-4-yl]-1H-benzimidazol-2-yl}amino)pyridin-4-yl]ethyl}piperazin-1-yl)-3,3,3-trifluoropropan-1-one] |
| 280 nM | – | CC(C)(C)OC(=O)N1CCN(Cc2ccnc(Nc3nc4ccc(-c5ccncc5C#N)cc4[nH]3)c2)CC1 [Example 133.01, tert-butyl 4-[(2-{[6-(3-cyanopyridin-4-yl)-1H-benzimidazol-2-yl]amino}pyridin-4-yl)methyl]piperazine-1-carboxylate] |
| 8.3 nM | – | O=C(C1CC1)N1CCN(Cc2ccnc(Nc3nc4ccc(-c5ncnc(NC6CC6)c5F)cc4[nH]3)c2)CC1 [Example 192.03, cyclopropyl(4-{[2-({6-[6-(cyclopropylamino)-5-fluoropyrimidin-4-yl]-1H-benzimidazol-2-yl}amino)pyridin-4-yl]mnethyl}piperazin-1-yl)methanone] |
| 440 nM | – | CN(C)c1cnc(-c2ccc3nc(Nc4cc(CN5CCN(C(=O)C6CC6)CC5)ccn4)[nH]c3c2)cn1 [Example 144.03, cyclopropyl(4-{[2-({6-[5-(dimethylamino)pyrazin-2-yl]-1H-benzimidazol-2-yl}amino)pyridin-4-yl]methyl}piperazin-1-yl)methanone] |
